Laboratory results taken from patent publication US20250353863A1, “TRICYCLIC SPIROLACTAM COMPOUNDS WITH ANTIMYCOBACTERIAL ACTIVITY” (priority 2022, published 2025).
Converted amounts (≈) assume the structure as drawn. Where two headings read alike, the source gives them in different places.

Test system: Mtb H37Rv-WT
Experiment: MIC by resazurin microtiter assay (REMA) against Mtb
Type: cell-based
Settings: Mycobacterium tuberculosis
[1] = 144 h, REMA, 37° C., 6 days, read-out: MIC (μM) H37Rv-WT
[2] = REMA, read-out: MIC M. tuberculosis

SMILES | MIC [1] | other results
CC(C)[C@H]1CO[C@]23CCN(Cc4nccn4C)C[C@H]2CCC(=O)N13 [(3S,7aR,11aR)-3-isopropyl-9-[(1-methylimidazol-2-yl)methyl]-2,3,6,7,7a,8,10,11-octahydrooxazolo[2,3-j][1,6]naphthyridin-5-one] | 1 to 10 µM (≈ 0.332 to 3.32 µg/mL) | 
CC(C)[C@H]1CO[C@]23CCN(Cc4ccc(C(F)(F)F)cc4C(F)(F)F)C[C@H]2CCC(=O)N13 [Example 10, (3S,7aR,11aR)-9-[[2,4-bis(trifluoromethyl)phenyl]methyl]-3-isopropyl-2,3,6,7,7a,8,10,11-octahydrooxazolo[2,3-j][1,6]naphthyridin-5-one] |  | MIC [2]: < 1 µM
CC(C)[C@H]1CO[C@]23CCN(Cc4ccc(OC(F)(F)F)cc4)C[C@H]2CCC(=O)N13 | < 1 µM | 
Cc1ccc(CN2CC[C@]34OC[C@H](C(C)C)N3C(=O)CC[C@@H]4C2)cc1 [(3S,7aR,11aR)-3-isopropyl-9-(p-tolylmethyl)-2,3,6,7,7a,8,10,11-octahydrooxazolo[2,3-j][1,6]naphthyridin-5-one] | 1 to 10 µM (≈ 0.342 to 3.42 µg/mL) | 
CC(C)[C@H]1CO[C@]23CCN(c4ccc(C(F)(F)F)cc4)C[C@H]2CCC(=O)N13 [(3S,7aR,11aR)-3-isopropyl-9-[4-(trifluoromethyl)phenyl]-2,3,6,7,7a,8,10,11-octahydrooxazolo[2,3-j][1,6]naphthyridin-5-one] | 1 to 10 µM (≈ 0.382 to 3.82 µg/mL) | 
CC(C)[C@H]1CO[C@]23CCN(Cc4ccc(N5CCCCC5)cc4)C[C@H]2CCC(=O)N13 [(3S,7aR,11aR)-3-isopropyl-9-[[4-(1-piperidyl)phenyl]methyl]-2,3,6,7,7a,8,10,11-octahydrooxazolo[2,3-j][1,6]naphthyridin-5-one] | 1 to 10 µM (≈ 0.412 to 4.12 µg/mL) | 
CC(C)[C@H]1CO[C@]23CCN(Cc4ccc(C(F)(F)F)cc4)C[C@H]2C[C@@H](C)C(=O)N13 | < 1 µM | 
CC(C)[C@H]1CO[C@]23CCN(Cc4ccc(C(F)(F)F)cc4C(F)(F)F)C[C@H]2CCC(=O)N13 [(3S,7aR,11aR)-9-[[2,4-bis(trifluoromethyl)phenyl]methyl]-3-isopropyl-2,3,6,7,7a,8,10,11-octahydrooxazolo[2,3-j][1,6]naphthyridin-5-one] | < 1 µM | 
CC(C)[C@H]1CO[C@]23CCN(Cc4cc(C(F)(F)F)nc5ccccc45)C[C@H]2CCC(=O)N13 [Example 25, (3S,7aR,11aR)-3-isopropyl-9-[[2-(trifluoromethyl)-4-quinolyl]methyl]-2,3,6,7,7a,8,10,11-octahydrooxazolo[2,3-j][1,6]naphthyridin-5-one] |  | MIC [2]: < 1 µM
CC(C)[C@H]1CO[C@]23CCN(Cc4ccc(Cl)cc4)C[C@H]2CCC(=O)N13 [(3S,7aR,11aR)-9-[(4-chlorophenyl)methyl]-3-isopropyl-2,3,6,7,7a,8,10,11-octahydrooxazolo[2,3-j][1,6]naphthyridin-5-one] | < 1 µM | 
Cc1c(CN2CC[C@]34OC[C@H](C(C)C)N3C(=O)CC[C@@H]4C2)[nH]c2ccccc12 [(3S,7aR,11aR)-3-isopropyl-9-[(3-methyl-1H-indol-2-yl)methyl]-2,3,6,7,7a,8,10,11-octahydrooxazolo[2,3-j][1,6]naphthyridin-5-one] | < 1 µM | 
CC(C)[C@H]1CO[C@]23CCN(Cc4ccc(Cl)c(C(F)(F)F)c4)C[C@H]2CCC(=O)N13 [(3S,7aR,11aR)-9-[[4-chloro-3-(trifluoromethyl)phenyl]methyl]-3-isopropyl-2,3,6,7,7a,8,10,11-octahydrooxazolo[2,3-j][1,6]naphthyridin-5-one] | < 1 µM | 
CC(C)[C@H]1CO[C@]23CCN(Cc4ccc(O)cc4)C[C@H]2CCC(=O)N13 [(3S,7aR,11aR)-9-[(4-hydroxyphenyl)methyl]-3-isopropyl-2,3,6,7,7a,8,10,11-octahydrooxazolo[2,3-j][1,6]naphthyridin-5-one] | > 10 µM | 
CC(C)[C@H]1CO[C@]23CCN(Cc4ccc(N5CCC(Oc6ccc(OC(F)(F)F)cc6)CC5)cc4)C[C@H]2CCC(=O)N13 [(3S,7aR,11aR)-3-isopropyl-9-[[4-[4-[4-(trifluoromethoxy)phenoxy]-1-piperidyl]phenyl]methyl]-2,3,6,7,7a,8,10,11-octahydrooxazolo[2,3-j][1,6]naphthyridin-5-one] | < 1 µM | 
CC(C)[C@H]1CO[C@]23CCN(CC4CCCO4)C[C@H]2CCC(=O)N13 (stereo partly drawn) [(3S,7aR,11aR)-3-isopropyl-9-(tetrahydrofuran-2-ylmethyl)-2,3,6,7,7a,8,10,11-octahydrooxazolo[2,3-j][1,6]naphthyridin-5-one] | > 10 µM | 
CC(C)[C@H]1CO[C@]23CC[C@H](N(Cc4ccc(C(F)(F)F)cc4)Cc4ccc(C(F)(F)F)cc4)C[C@H]2CCC(=O)N13 | < 1 µM | 
CC(C)[C@H]1CO[C@]23CCN(C(=O)Cc4ccc(C(F)(F)F)cc4)C[C@H]2CCC(=O)N13 [(3S,7aR,11aR)-3-isopropyl-9-[2-[4-(trifluoromethyl)phenyl]acetyl]-2,3,6,7,7a,8,10,11-octahydrooxazolo[2,3-j][1,6]naphthyridin-5-one] | > 10 µM | 
CC(C)[C@H]1CO[C@]23CCN(CC4CCOCC4)C[C@H]2CCC(=O)N13 [(3S,7aR,11aR)-3-isopropyl-9-(tetrahydropyran-4-ylmethyl)-2,3,6,7,7a,8,10,11-octahydrooxazolo[2,3-j][1,6]naphthyridin-5-one] | > 10 µM | 

SMILES | MIC [1] | other results
CC(C)[C@H]1CO[C@]23CCCN(Cc4ccc(C(F)(F)F)cc4)C[C@H]2CCC(=O)N13 [(4S,9R)-4-isopropyl-11-[[4-(trifluoromethyl)phenyl]methyl]-2-oxa-5,11-diazatricyclo[7,5,0.01,5]tetradecan-6-one] | < 1 µM | 
CC(C)[C@H]1CO[C@]23CCN(C(=O)OCCCc4ccc(C(F)(F)F)cc4)C[C@H]2CCC(=O)N13 | 1 to 10 µM (≈ 0.469 to 4.69 µg/mL) | 
CC(C)[C@H]1CO[C@]23CCN(Cc4ccncc4)C[C@H]2CCC(=O)N13 [(3S,7aR,11aR)-3-isopropyl-9-(4-pyridylmethyl)-2,3,6,7,7a,8,10,11-octahydrooxazolo[2,3-j][1,6]naphthyridin-5-one] |  | MIC (144 h, read-out: MIC (μM) H37Rv-WT): > 10 µM
CC(C)[C@H]1CO[C@]23CCN(CC(F)(F)c4ccc(C(F)(F)F)cc4)C[C@H]2CCC(=O)N13 [(3S,7aR,11aR)-9-[2,2-difluoro-2-[4-(trifluoromethyl)phenyl]ethyl]-3-isopropyl-2,3,6,7,7a,8,10,11-octahydrooxazolo[2,3-j][1,6]naphthyridin-5-one] | < 1 µM | 
CC(C)[C@H]1CO[C@]23CCN(C(=O)OCc4ccc(C(F)(F)F)cc4)C[C@H]2CCC(=O)N13 [[4-(trifluoromethyl)phenyl]methyl (3S,7aR,11aR)-3-isopropyl-5-oxo-2,3,6,7,7a,8,10,11-octahydrooxazolo[2,3-j][1,6]naphthyridine-9-carboxylate] | 1 to 10 µM (≈ 0.44 to 4.4 µg/mL) | 
CC(C)[C@H]1CO[C@]23CCN(Cc4cccc(Oc5ccccc5)c4)C[C@H]2CCC(=O)N13 [(3S,7aR,11aR)-3-isopropyl-9-[(3-phenoxyphenyl)methyl]-2,3,6,7,7a,8,10,11-octahydrooxazolo[2,3-j][1,6]naphthyridin-5-one] | < 1 µM | 
CC(C)[C@H]1CO[C@]23CC[C@@H](N(Cc4ccc(C(F)(F)F)cc4)Cc4ccc(C(F)(F)F)cc4)C[C@H]2CCC(=O)N13 | < 1 µM | 
CC(C)[C@H]1CCO[C@]23CCN(Cc4ccc(C(F)(F)F)cc4)C[C@H]2CCC(=O)N13 | 1 to 10 µM (≈ 0.41 to 4.1 µg/mL) | 
CC(C)[C@H]1CO[C@]23CCN(Cc4ccccc4)C[C@H]2CC(=O)N13 [(1R,4S,8R)-10-benzyl-4-isopropyl-2-oxa-5,10-diazatricyclo[6.4.0.01,5]dodecan-6-one] | 1 to 10 µM (≈ 0.314 to 3.14 µg/mL) | 
CC(C)[C@H]1CO[C@]23CCN(CCCc4ccc(C(F)(F)F)cc4)C[C@H]2CCC(=O)N13 [Example 39, (3S,7aR,11aR)-3-isopropyl-9-[3-[4-(trifluoromethyl)phenyl]propyl]-2,3,6,7,7a,8,10,11-octahydrooxazolo[2,3-j][1,6]naphthyridin-5-one] |  | MIC [2]: < 1 µM
CC(C)[C@H]1CO[C@]23CCN(Cc4ccc(F)cc4)C[C@H]2CCC(=O)N13 [(3S,7aR,11aR)-9-[(4-fluorophenyl)methyl]-3-isopropyl-2,3,6,7,7a,8,10,11-octahydrooxazolo[2,3-j][1,6]naphthyridin-5-one] | < 1 µM | 
O=C1CC[C@@H]2CN(Cc3ccccc3)CC[C@@]23OC[C@H](C2CC2)N13 [(3S,7aR,11aR)-9-benzyl-3-cyclopropyl-2,3,6,7,7a,8,10,11-octahydrooxazolo[2,3-j][1,6]naphthyridin-5-one] | > 10 µM | 
CC(C)[C@H]1CO[C@]23CCN(Cc4ccc(Cl)c(Cl)c4)C[C@H]2CCC(=O)N13 [(3S,7aR,11aR)-9-[(3,4-dichlorophenyl)methyl]-3-isopropyl-2,3,6,7,7a,8,10,11-octahydrooxazolo[2,3-j][1,6]naphthyridin-5-one] | < 1 µM | 
CC(C)[C@H]1CO[C@]23CCN(Cc4ccc(C(F)(F)F)cc4)C[C@H]2CC(F)(F)C(=O)N13 [(3S,7aR,11aR)-6,6-difluoro-3-isopropyl-9-[[4-(trifluoromethyl)phenyl]methyl]-3,7,7a,8,10,11-hexahydro-2H-oxazolo[2,3-j][1,6]naphthyridin-5-one] | < 1 µM | 
CC(C)[C@H]1CO[C@]23CCN(Cc4ccc(C(F)(F)F)cc4)[C@H]2CCC(=O)N13 [(1R,4S,9S)-4-isopropyl-10-[[4-(trifluoromethyl)phenyl]methyl]-2-oxa-5,10-diazatricyclo[7.3.0.01,5]dodecan-6-one] | < 1 µM | 
CC(C)[C@H]1CO[C@]23CCN(Cc4ccc(C(F)(F)F)cc4)C[C@H]2C[C@@H](F)C(=O)N13 [(3S,7aR,11aR)-6-fluoro-3-isopropyl-9-[[4-(trifluoromethyl)phenyl]methyl]-2,3,6,7,7a,8,10,11-octahydrooxazolo[2,3-j][1,6]naphthyridin-5-one] | < 1 µM | 
O=C1CC[C@@H]2CN(Cc3ccc(C(F)(F)F)cc3)CC[C@@]23OC[C@H](C(F)(F)F)N13 [(3R,7aR,11aR)-3-(trifluoromethyl)-9-[[4-(trifluoromethyl)phenyl]methyl]-2,3,6,7,7a,8,10,11-octahydrooxazolo[2,3-j][1,6]naphthyridin-5-one] | > 10 µM | 
CC[C@H]1C[C@@H]2CN(Cc3ccc(C(F)(F)F)cc3)CC[C@@]23OC[C@H](C(C)C)N3C1=O [(3S,6S,7aR,11aR)-6-ethyl-3-isopropyl-9-[[4-(trifluoromethyl)phenyl]methyl]-2,3,6,7,7a,8,10,11-octahydrooxazolo[2,3-j][1,6]naphthyridin-5-one] | > 10 µM | 
